Assay results reported in patent US10597388B2, “Pyridazinone herbicides” (FMC CORPORATION, priority 2014, dated 2020).

What was measured:
Experiment in all cases: Test C greenhouse herbicide test, pre- and postemergence
Assay type in all cases: in vivo
[1] = test system: pigweed (Amaranthus retroflexus)
Text: (§1) Seeds of plant species selected from blackgrass (Alopecurus myosuroides), ryegrass, Italian (Italian ryegrass, Lolium multiflorum), wheat (winter wheat, Triticum aestivum), galium (catchweed bedstraw, Galium aparine), corn (Zea mays), large crabgrass, large (large crabgrass, Digitaria sanguinalis), foxtail, giant (giant foxtail, Setaria faberii), johnsongrass (Sorghum halepense), lambsquarters (Chenopodium album), morningglory (Ipomoea coccinea), nutsedge, yellow (yellow nutsedge, Cyperus esculentus), pigweed (Amaranthus retroflexus), ragweed (common ragweed, Ambrosia elatior), soybean (Glycine max), barnyardgrass (Echinochloa crus-galli), oilseed rape (Brassica napus), waterhemp (common waterhemp, Amaranthus rudis), and velvetleaf (Abutilon theophrasti) were planted into a blend of loam soil and sand and treated preemergence with test chemicals formulated in a non-phytotoxic solvent mixture which included a surfactant.
(§2) At the same time, plants selected from these crop and weed species and also chickweed (common chickweed, Stellaria media), kochia (Kochia scoparia), and oat, wild (wild oat, Avena fatua), were planted in pots containing Redi-Earth® planting medium (Scotts Company, 14111 Scottslawn Road, Marysville, Ohio 43041) comprising spaghnum peat moss, vermiculite, wetting agent and starter nutrients and treated with postemergence applications of test chemicals formulated in the same manner. Plants ranged in height from 2 to 18 cm (1- to 4-leaf stage) for postemergence treatments. Treated plants and controls were maintained in a greenhouse for 13 to 15 d, after which time all species were compared to controls and visually evaluated. Plant response ratings, summarized in Table C, are based on a scale of 0 to 100 where 0 is no effect and 100 is complete control. A dash (-) response means no test result.

[2] = test system: blackgrass (Alopecurus myosuroides)
Text: as §1, §2

[3] = test system: barnyardgrass (Echinochloa crus-galli)
Text: as §1, §2

[4] = test system: waterhemp (common waterhemp, Amaranthus rudis)
Text: as §1, §2

[5] = test system: ragweed (common ragweed, Ambrosia elatior)
Text: as §1, §2

[6] = test system: nutsedge, yellow (yellow nutsedge, Cyperus esculentus)
Text: as §1, §2

corn (Zea mays) = test system: corn (Zea mays)
Text: as §1, §2

[7] = test system: ryegrass, Italian (Italian ryegrass, Lolium multiflorum)
Text: as §1, §2

[8] = test system: crabgrass, large (large crabgrass, Digitaria sanguinalis)
Text: as §1, §2

[9] = test system: lambsquarters (Chenopodium album)
Text: as §1, §2

soybean (Glycine max) = test system: soybean (Glycine max)
Text: as §1, §2

[10] = test system: velvetleaf (Abutilon theophrasti)
Text: as §1, §2

[11] = test system: wheat (winter wheat, Triticum aestivum)
Text: as §1, §2

[12] = test system: johnsongrass (Sorghum halepense)
Text: as §1, §2

[13] = test system: morningglory (Ipomoea coccinea)
Text: as §1, §2

[14] = Postemergence, 31 g ai/ha, 0 to 100 scale (0 no effect, 100 complete control)
[15] = Postemergence, 125 g ai/ha, scale 0 to 100, 0 is no effect, 100 is complete control
[16] = Postemergence, 250 g ai/ha, scale 0 to 100, 0 no effect, 100 complete control, 13 to 15 d
[17] = Preemergence, 31 g ai/ha, scale 0 to 100, 0 is no effect, 100 is complete control
[18] = Preemergence, 62 g ai/ha, scale 0 to 100, 0 is no effect, 100 is complete control
[19] = Preemergence, 125 g ai/ha, scale 0 to 100, 0 is no effect, 100 is complete control
[20] = Preemergence, 250 g ai/ha, scale 0 to 100, 0 no effect, 100 complete control
[21] = postemergence, 62 g ai/ha, scale 0 to 100, 0 no effect, 100 complete control

Cc1cc(C)c2sc(C)c(-c3c(O)c(C)nn(C)c3=O)c2c1 [Compound 2, 5-hydroxy-2,6-dimethyl-4-(2,5,7-trimethylbenzo[b]thien-3-yl)-3(2H)-pyridazinone]
75: Ryegrass, Italian plant response rating [7, 21]
0: Corn plant response rating (corn (Zea mays); [14]) | Plant response rating, Corn (corn (Zea mays); [17]) | Plant response rating, Corn (corn (Zea mays); [18]) | Plant response rating, Corn (corn (Zea mays); [19]) | Soybean plant response rating (soybean (Glycine max); [14]) | Plant response rating, Soybean (soybean (Glycine max); [18]) | Plant response rating, Soybean (soybean (Glycine max); [19]) | Soybean plant response rating (soybean (Glycine max); [20]) | Soybean plant response rating (soybean (Glycine max); [21]) | Wheat plant response rating [11, 14] | Plant response rating, Wheat [11, 18] | Plant response rating, Wheat [11, 19] | Wheat plant response rating [11, 21] | Plant response rating, Johnsongrass [12, 17] | Plant response rating, Johnsongrass [12, 18]
50: Plant response rating, Soybean (soybean (Glycine max); [15])
95: Plant response rating, Blackgrass [2, 19] | Blackgrass plant response rating [2, 20] | Plant response rating, Barnyardgrass [3, 19] | Plant response rating, Ragweed [5, 15] | Nutsedge, Yellow plant response rating [6, 20] | Nutsedge, Yellow plant response rating [6, 21] | Plant response rating, Ryegrass, Italian [7, 17] | Crabgrass, Large plant response rating [8, 20] | Plant response rating, Velvetleaf [10, 18]
35: Plant response rating, Barnyardgrass [3, 17]
98: Plant response rating, Pigweed [1, 16] | Barnyardgrass plant response rating [3, 20] | Plant response rating, Ragweed [5, 16] | Ragweed plant response rating [5, 20] | Plant response rating, Nutsedge, Yellow [6, 15] | Plant response rating, Nutsedge, Yellow [6, 16] | Plant response rating, Ryegrass, Italian [7, 18] | Plant response rating, Ryegrass, Italian [7, 19] | Ryegrass, Italian plant response rating [7, 20] | Plant response rating, Crabgrass, Large [8, 19] | Plant response rating, Lambsquarters [9, 15] | Plant response rating, Morningglory [13, 17] | Plant response rating, Morningglory [13, 19]
85: Plant response rating, Blackgrass [2, 15] | Plant response rating, Blackgrass [2, 17] | Plant response rating, Waterhemp [4, 15] | Plant response rating, Ryegrass, Italian [7, 15] | Lambsquarters plant response rating [9, 14] | Lambsquarters plant response rating [9, 21]
45: Blackgrass plant response rating [2, 14] | Plant response rating, Nutsedge, Yellow [6, 18]
5: Plant response rating, Corn (corn (Zea mays); [15]) | Corn plant response rating (corn (Zea mays); [21]) | Plant response rating, Soybean (soybean (Glycine max); [16]) | Plant response rating, Wheat [11, 15] | Plant response rating, Wheat [11, 16] | Johnsongrass plant response rating [12, 14] | Plant response rating, Johnsongrass [12, 15] | Plant response rating, Johnsongrass [12, 16] | Plant response rating, Johnsongrass [12, 19] | Johnsongrass plant response rating [12, 20] | Johnsongrass plant response rating [12, 21]
90: Plant response rating, Pigweed [1, 15] | Plant response rating, Blackgrass [2, 18] | Plant response rating, Ryegrass, Italian [7, 16]
100: Plant response rating, Pigweed [1, 17] | Plant response rating, Pigweed [1, 18] | Plant response rating, Pigweed [1, 19] | Pigweed plant response rating [1, 20] | Plant response rating, Waterhemp [4, 16] | Plant response rating, Waterhemp [4, 18] | Plant response rating, Waterhemp [4, 19] | Waterhemp plant response rating [4, 20] | Plant response rating, Ragweed [5, 18] | Plant response rating, Ragweed [5, 19] | Plant response rating, Lambsquarters [9, 16] | Plant response rating, Lambsquarters [9, 17] | Plant response rating, Lambsquarters [9, 18] | Plant response rating, Lambsquarters [9, 19] | Lambsquarters plant response rating [9, 20] | Velvetleaf plant response rating [10, 14] | Plant response rating, Velvetleaf [10, 15] | Plant response rating, Velvetleaf [10, 16] | Plant response rating, Velvetleaf [10, 19] | Velvetleaf plant response rating [10, 20] | Velvetleaf plant response rating [10, 21] | Morningglory plant response rating [13, 14] | Plant response rating, Morningglory [13, 15] | Plant response rating, Morningglory [13, 16] | Plant response rating, Morningglory [13, 18] | Morningglory plant response rating [13, 20] | Morningglory plant response rating [13, 21]
30: Plant response rating, Nutsedge, Yellow [6, 17]
80: Pigweed plant response rating [1, 14] | Plant response rating, Blackgrass [2, 16] | Ragweed plant response rating [5, 14] | Ragweed plant response rating [5, 21] | Nutsedge, Yellow plant response rating [6, 14]
70: Plant response rating, Barnyardgrass [3, 18] | Plant response rating, Nutsedge, Yellow [6, 19]
15: Plant response rating, Barnyardgrass [3, 15] | Plant response rating, Crabgrass, Large [8, 15] | Crabgrass, Large plant response rating [8, 21]
60: Pigweed plant response rating [1, 21] | Ryegrass, Italian plant response rating [7, 14]
20: Plant response rating, Barnyardgrass [3, 16]
65: Blackgrass plant response rating [2, 21] | Waterhemp plant response rating [4, 14] | Waterhemp plant response rating [4, 21] | Plant response rating, Ragweed [5, 17]
55: Plant response rating, Crabgrass, Large [8, 17] | Plant response rating, Crabgrass, Large [8, 18]
10: Barnyardgrass plant response rating [3, 14] | Barnyardgrass plant response rating [3, 21] | Plant response rating, Corn (corn (Zea mays); [16]) | Corn plant response rating (corn (Zea mays); [20]) | Crabgrass, Large plant response rating [8, 14] | Plant response rating, Crabgrass, Large [8, 16] | Wheat plant response rating [11, 20]
